In article PMC9897788, “Design, synthesis and cytotoxic evaluation of novel bis-thiazole derivatives as preferential Pim1 kinase inhibitors with in vivo and in silico study” (Journal of Enzyme Inhibition and Medicinal Chemistry, 2023):

Columns and labels:
Assay in all cases: NCI 60 cell one-dose screening (SRB)
Type in all cases: cell-based
RPMI-8226 = settings: Homo sapiens; RPMI-8226, Leukemia; single dose 10 µM, 48 h; read-out: Percentage of cellular growth inhibition
Procedure: (§1) The 60 cancerous cell panel screening was performed following the Developmental Therapeutics Program (DTP) of the National Cancer Institute (NIH-NCI), USA. A single dose of 10 µM was used to perform the screening at 48 h incubation and the results were achieved as cancerous cell growth percentage relative to the no-drug control that was converted to an inhibition percentage by subtracting from 100.The cancerous cell lines were grown in RPMI 1640 medium containing 5% foetal bovine serum and 2 mM L-glutamine at 37 °C, 5% CO2, 95% air and 100% relative humidity for 24 h prior to addition of the tested compounds. After 24 h, two plates of each cell line were fixed in situ with TCA to represent a measurement of the cell population for each cell line at the time of drug addition (Tz). Compounds were dissolved in DMSO at 400-fold the desired final maximum test concentration and stored frozen prior to use. At the time of drug addition, an aliquot of frozen concentrate was thawed and diluted to twice the desired final maximum test concentration with complete medium containing 50 µg/mL gentamicin. Aliquots of 100 µL of the compounds dilution was added to the appropriate micro titre wells already containing 100 µL of medium, resulting in the required final drug concentrations of 10 µM. Following compounds addition, the plates were incubated for an additional 48 h at 37 °C, 5% CO2, 95% air, and 100% relative humidity. For adherent cells, the assay was terminated by the addition of cold TCA. Cells were fixed in situ by the gentle addition of 50 µL of cold 50% (w/v) TCA (final concentration, 10% TCA) and incubated for 60 min at 4 °C. The supernatant was discarded, and the plates were washed five times with tap water and air dried. Sulphorhodamine B (SRB) solution (100 µL) at 0.4% (w/v) in 1% acetic acid is added to each well, and plates are incubated for 10 min at room temperature. After staining, unbound dye was removed by washing five times with 1% acetic acid and the plates were air dried. Bound stain was subsequently solubilised with 10 mM trizma base, and the absorbance was read on an automated plate reader at a wavelength of 515 nm. For suspension cells, the methodology was the same except that the assay was terminated by fixing settled cells at the bottom of the wells by gently adding 50 µL of 80% TCA (final concentration, 16% TCA). Using the seven absorbance measurements [time zero, (Tz), control growth, I, and test growth in the presence of drug at the five concentration levels (Ti)], the percentage growth was calculated as: [(Ti−Tz)/(C−Tz)]×100 for concentrations for which Ti>/=Tz [(Ti−Tz)/Tz]×100 for concentrations for which Ti<Tz.

HS 578T = settings: Homo sapiens, Breast Cancer, single dose 10 µM, 48 h, read-out: Percentage of cellular growth inhibition
Procedure: as §1

786-0 = settings: Homo sapiens; 786-0, Renal Cancer; single dose 10 µM, 48 h; read-out: Percentage of cellular growth inhibition
Procedure: as §1

A498 = settings: Homo sapiens; A498, Renal Cancer; single dose 10 µM, 48 h; read-out: Percentage of cellular growth inhibition
Procedure: as §1

EKVX = settings: Homo sapiens, Non-Small Cell Lung Cancer, single dose 10 µM, 48 h, read-out: Percentage of cellular growth inhibition
Procedure: as §1

SF-539 = settings: Homo sapiens; SF-539, CNS Cancer; single dose 10 µM, 48 h; read-out: Percentage of cellular growth inhibition
Procedure: as §1

A549/ATCC = settings: Homo sapiens, Non-Small Cell Lung Cancer, single dose 10 µM, 48 h, read-out: Percentage of cellular growth inhibition
Procedure: as §1

MALME-3M = settings: Homo sapiens, Melanoma, single dose 10 µM, 48 h, read-out: Percentage of cellular growth inhibition
Procedure: as §1

HT29 = settings: Homo sapiens, HT-29; HT29, Colon Cancer; single dose 10 µM, 48 h; read-out: Percentage of cellular growth inhibition
Procedure: as §1

HOP-62 = settings: Homo sapiens; HOP-62, Non-Small Cell Lung Cancer; single dose 10 µM, 48 h; read-out: Percentage of cellular growth inhibition
Procedure: as §1

IGROV1 = settings: Homo sapiens, IGROV-1; IGROV1, Ovarian Cancer; single dose 10 µM, 48 h; read-out: Percentage of cellular growth inhibition
Procedure: as §1

NCI-H522 = settings: Homo sapiens; NCI-H522, Non-Small Cell Lung Cancer; single dose 10 µM, 48 h; read-out: Percentage of cellular growth inhibition
Procedure: as §1

MDA-MB-231/ATCC = settings: Homo sapiens, Breast Cancer, single dose 10 µM, 48 h, read-out: Percentage of cellular growth inhibition
Procedure: as §1

ACHN = settings: Homo sapiens, Renal Cancer, single dose 10 µM, 48 h, read-out: Percentage of cellular growth inhibition
Procedure: as §1

SW-620 = settings: Homo sapiens; SW-620, Colon Cancer; single dose 10 µM, 48 h; read-out: Percentage of cellular growth inhibition
Procedure: as §1

NCI/ADR-RES = settings: Homo sapiens, Ovarian Cancer, single dose 10 µM, 48 h, read-out: Percentage of cellular growth inhibition
Procedure: as §1

TK-10 = settings: Homo sapiens; TK-10, Renal Cancer; single dose 10 µM, 48 h; read-out: Percentage of cellular growth inhibition
Procedure: as §1

SF-295 = settings: Homo sapiens; SF-295, CNS Cancer; single dose 10 µM, 48 h; read-out: Percentage of cellular growth inhibition
Procedure: as §1

KM12 = settings: Homo sapiens; KM12, Colon Cancer; single dose 10 µM, 48 h; read-out: Percentage of cellular growth inhibition
Procedure: as §1

UO-31 = settings: Homo sapiens; UO-31, Renal Cancer; single dose 10 µM, 48 h; read-out: Percentage of cellular growth inhibition
Procedure: as §1

NCI-H460 = settings: Homo sapiens; NCI-H460, Non-Small Cell Lung Cancer; single dose 10 µM, 48 h; read-out: Percentage of cellular growth inhibition
Procedure: as §1

CC(=O)c1sc(Nc2cccc(Nc3nc(C)c(C(C)=O)s3)c2)nc1C [3b, 1,1’-(2,2’-(1,3-Phenylenebis(azanediyl))bis(4-methylthiazole-5,2-diyl))diethanone]
inhibition at 10 µM (RPMI-8226): 32.1%
inhibition at 10 µM (HS 578T): 47.3%
inhibition at 10 µM (786-0): 44.3%
inhibition at 10 µM (A498): 72.3%
inhibition at 10 µM (EKVX): 31.2%
inhibition at 10 µM (SF-539): 27.8%
inhibition at 10 µM (A549/ATCC): 34.2%
inhibition at 10 µM (MALME-3M): 30.2%
inhibition at 10 µM (HT29): 30%
inhibition at 10 µM (HOP-62): 22.2%
inhibition at 10 µM (IGROV1): 73.6%
inhibition at 10 µM (NCI-H522): 53.8%
inhibition at 10 µM (MDA-MB-231/ATCC): 19.3%
inhibition at 10 µM (ACHN): 63.5%
inhibition at 10 µM (SW-620): 37.5%
inhibition at 10 µM (NCI/ADR-RES): 44.4%
inhibition at 10 µM (TK-10): 46.4%
inhibition at 10 µM (SF-295): 13.5%
inhibition at 10 µM (KM12): 39.8%
inhibition at 10 µM (UO-31): 67.8%
inhibition at 10 µM (NCI-H460): 54.4%

CCOC(=O)c1sc(Nc2cccc(Nc3nc(C)c(C(=O)OCC)s3)c2)nc1C [3c, Diethyl 2,2’-(1,3-phenylenebis(azanediyl))bis(4-methylthiazole-5-carboxylate)]
inhibition at 10 µM (RPMI-8226): 37.7%
inhibition at 10 µM (HS 578T): 14.7%
inhibition at 10 µM (786-0): 5.5%
inhibition at 10 µM (A498): 52.7%
inhibition at 10 µM (EKVX): 38.6%
inhibition at 10 µM (SF-539): 16.2%
inhibition at 10 µM (A549/ATCC): 12%
inhibition at 10 µM (MALME-3M): 15.2%
inhibition at 10 µM (HT29): -4.7%
inhibition at 10 µM (HOP-62): 1.2%
inhibition at 10 µM (IGROV1): 23.4%
inhibition at 10 µM (NCI-H522): 26.7%
inhibition at 10 µM (MDA-MB-231/ATCC): 20.8%
inhibition at 10 µM (ACHN): 24.6%
inhibition at 10 µM (SW-620): 11.4%
inhibition at 10 µM (NCI/ADR-RES): 33.1%
inhibition at 10 µM (TK-10): -0.8%
inhibition at 10 µM (SF-295): 33.8%
inhibition at 10 µM (KM12): 12.2%
inhibition at 10 µM (UO-31): 32.9%
inhibition at 10 µM (NCI-H460): 23.5%

NC(=S)Nc1cccc(NC(N)=S)c1 [compound 2, 1,1′-(1,3-phenylene)bis(thiourea)]
inhibition at 10 µM (RPMI-8226): -9.5%
inhibition at 10 µM (HS 578T): -5%
inhibition at 10 µM (786-0): -7.8%
inhibition at 10 µM (A498): -1.2%
inhibition at 10 µM (EKVX): -1.3%
inhibition at 10 µM (SF-539): -0.5%
inhibition at 10 µM (A549/ATCC): 6.1%
inhibition at 10 µM (MALME-3M): 15.7%
inhibition at 10 µM (HT29): -13.3%
inhibition at 10 µM (HOP-62): -19.5%
inhibition at 10 µM (IGROV1): 2.5%
inhibition at 10 µM (NCI-H522): 2.8%
inhibition at 10 µM (MDA-MB-231/ATCC): 10.3%
inhibition at 10 µM (ACHN): 3.7%
inhibition at 10 µM (SW-620): -6.9%
inhibition at 10 µM (NCI/ADR-RES): 2.4%
inhibition at 10 µM (TK-10): -7.3%
inhibition at 10 µM (SF-295): 9.8%
inhibition at 10 µM (KM12): 12.4%
inhibition at 10 µM (UO-31): 30%
inhibition at 10 µM (NCI-H460): -9.7%

c1ccc(/N=c2\scc(-c3ccccc3)n2-c2cccc(-n3c(-c4ccccc4)cs/c3=N\c3ccccc3)c2)cc1 [8a, N,N’-(3,3’-(1,3-phenylene)bis(4-phenylthiazole-3(3H)-yl-2(3H)-ylidene))dianiline]
inhibition at 10 µM (RPMI-8226): -0.5%
inhibition at 10 µM (HS 578T): 4.2%
inhibition at 10 µM (786-0): -11.1%
inhibition at 10 µM (A498): -18.1%
inhibition at 10 µM (EKVX): 5.3%
inhibition at 10 µM (SF-539): -7.1%
inhibition at 10 µM (A549/ATCC): -4.9%
inhibition at 10 µM (MALME-3M): 3%
inhibition at 10 µM (HT29): -3.1%
inhibition at 10 µM (HOP-62): -12.6%
inhibition at 10 µM (IGROV1): -6.1%
inhibition at 10 µM (NCI-H522): 12.2%
inhibition at 10 µM (MDA-MB-231/ATCC): -4.1%
inhibition at 10 µM (ACHN): 3%
inhibition at 10 µM (SW-620): -0.4%
inhibition at 10 µM (NCI/ADR-RES): -5%
inhibition at 10 µM (TK-10): -38.8%
inhibition at 10 µM (SF-295): -22.4%
inhibition at 10 µM (KM12): 1.1%
inhibition at 10 µM (UO-31): 25.4%
inhibition at 10 µM (NCI-H460): -6.3%

Fc1ccc(-c2cs/c(=N\c3ccccc3)n2-c2cccc(-n3c(-c4ccc(F)cc4)cs/c3=N\c3ccccc3)c2)cc1 [8b, N,N’-(3,3’-(1,3-phenylene)bis(4–(4-fluorophenyl)thiazole-3(3H)-yl-2(3H)-ylidene))dianiline]
inhibition at 10 µM (RPMI-8226): 24.2%
inhibition at 10 µM (HS 578T): 13.4%
inhibition at 10 µM (786-0): 4.2%
inhibition at 10 µM (A498): -6.4%
inhibition at 10 µM (EKVX): 19.5%
inhibition at 10 µM (SF-539): -0.9%
inhibition at 10 µM (A549/ATCC): 19.8%
inhibition at 10 µM (MALME-3M): 7.5%
inhibition at 10 µM (HT29): 9.9%
inhibition at 10 µM (HOP-62): -4.6%
inhibition at 10 µM (IGROV1): 12.9%
inhibition at 10 µM (NCI-H522): 41.6%
inhibition at 10 µM (MDA-MB-231/ATCC): 8.9%
inhibition at 10 µM (ACHN): 2.3%
inhibition at 10 µM (SW-620): 45.1%
inhibition at 10 µM (NCI/ADR-RES): 10.2%
inhibition at 10 µM (TK-10): -16.6%
inhibition at 10 µM (SF-295): -18.8%
inhibition at 10 µM (KM12): 12.8%
inhibition at 10 µM (UO-31): 26.3%
inhibition at 10 µM (NCI-H460): 37.5%

Fc1ccc(-c2csc(Nc3cccc(Nc4nc(-c5ccc(F)cc5)cs4)c3)n2)cc1 [6b, N^1,N^3-bis(4–(4-fluorophenyl)thiazol-2-yl)benzene-1,3-diamine]
inhibition at 10 µM (RPMI-8226): 50.5%
inhibition at 10 µM (HS 578T): 30.7%
inhibition at 10 µM (786-0): 31.2%
inhibition at 10 µM (A498): 21.7%
inhibition at 10 µM (EKVX): 60.2%
inhibition at 10 µM (SF-539): 29.1%
inhibition at 10 µM (A549/ATCC): 37.2%
inhibition at 10 µM (MALME-3M): 17%
inhibition at 10 µM (HT29): 37.7%
inhibition at 10 µM (HOP-62): 27.3%
inhibition at 10 µM (IGROV1): 58.2%
inhibition at 10 µM (NCI-H522): 93.8%
inhibition at 10 µM (MDA-MB-231/ATCC): 35.4%
inhibition at 10 µM (ACHN): 48.2%
inhibition at 10 µM (SW-620): 29.7%
inhibition at 10 µM (NCI/ADR-RES): 36.3%
inhibition at 10 µM (TK-10): 5.5%
inhibition at 10 µM (SF-295): 9.6%
inhibition at 10 µM (KM12): 62.4%
inhibition at 10 µM (UO-31): 68.7%
inhibition at 10 µM (NCI-H460): 59.6%
